Assay results from US20260235610A1, “METHOD OF PREDICTING SUCCESS OF A CANCER THERAPY” (IMMUSMOL SAS, priority 2023, published 2026).

Tests used:
TPH1 = molecular target: T1, TPH1 (Homo sapiens, UniProt P17752); assay: Tryptophan metabolites (Trp, 5HTP, 5HT and ratios) in QGP1-conditioned media as surrogate of TPH1 activity; format: cell-based; settings: QGP1 cells cultured 48 hours; for effect on C-Media decrease in Trp level and concomitant increase of 5HTP, 5HT, 5HTP/Trp and 5HT/Trp ratios: Telotristat 1 μM, PEA 300 μM, versus C-Media alone
T1 construct: QGP1 neuroendocrine tumor cell line characterized by a high TPH1 expression and activity; endogenous in cells; host or cells: QGP-1 neuroendocrine tumor cell line
T1 sequence (P17752 1-444): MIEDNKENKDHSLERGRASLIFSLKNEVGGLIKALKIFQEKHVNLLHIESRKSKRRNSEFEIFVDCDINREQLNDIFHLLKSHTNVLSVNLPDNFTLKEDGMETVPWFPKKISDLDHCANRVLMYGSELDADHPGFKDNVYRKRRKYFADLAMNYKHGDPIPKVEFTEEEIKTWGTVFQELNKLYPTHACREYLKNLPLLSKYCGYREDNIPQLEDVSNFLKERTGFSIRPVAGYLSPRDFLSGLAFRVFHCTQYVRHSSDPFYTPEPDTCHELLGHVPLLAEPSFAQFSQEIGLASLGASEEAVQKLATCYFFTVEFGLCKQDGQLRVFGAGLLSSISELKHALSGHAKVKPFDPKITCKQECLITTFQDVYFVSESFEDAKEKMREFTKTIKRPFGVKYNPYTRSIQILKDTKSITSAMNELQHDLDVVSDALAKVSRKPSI
Procedure: The impact of TPH1^High conditioned culture media (C-Media) on immune cell activation was evaluated. QGP1 neuroendocrine tumor cell line characterized by a high TPH1 expression and activity was cultured over a 48-hour period in the presence and absence of Telotristat (TPH1 inhibitor) or Phenethylamine (PEA) alone and in the presence of Telotristat.
The media characteristics were as follows: • i) NC-Media • ii) C-Media • iii) C-Media+Telotristat (TPH1 inhibitor) • iv) C-Media+Phenethylamine (PEA) • v) C-Media+Telotristat (TPH1 inhibitor)+Phenethylamine (PEA)
(§1) The QGP-1 cell line was cultured in RPMI-1640 medium, supplemented with 10% (v/v) FCS and penicillin-streptomycin in a humidified incubator at 5% CO2 and 37° C. In order to prepare the conditioned media, cells were cultured in 6-well plates for 48 hours in the presence and absence of Telotristat (1 μM), a TPH1 inhibitor, and in the presence and absence of Phenethylamine (PEA; 300 μM), a TPH1 inducer (Zhai et al., 2023). QGP1-conditioned media (C-Media) were used to culture human PBMCs (Peripheral Blood Mononuclear Cells) originating from one healthy donor for a 72-hour period under anti-CD3 activation (0.5 μg/mL). As control, fresh cell culture media (Non-Conditioned Media (NC-Media) was used.
Each analytes-Tryptophan (Trp), 5-hydroxyTryptopan (5HTP) and Serotonin (5HT)-were measured individually and then used to calculate ratio, i.e. 5HTP/Trp and 5HT/Trp as representative surrogate of TPH1 activity.
Tryptophan was quantified using an immunoassay (#BA-E-2700, ImmuSmol, Bordeaux, FRANCE). Briefly, in order to remove proteins, 20 μL of sample were precipitated, vortexed and then centrifuged for 15 minutes (3,000 g, at 4° C.). Twenty five microliters of supernatant were then used for derivatization for a 2 hour period at room temperature. Once the derivatization was achieved, 25 μL of the solution was applied on a 96-microtiters prior addition of 50 μL of anti-Tryptophan antiserum. […]
5-HdroxyTryptophan was quantified using an immunoassay. […]
Serotonin was quantified using an immunoassay (#BA-E-5900R, ImmuSmol, Bordeaux, FRANCE). […]

human PBMCs = assay: anti-CD3 mediated PBMCs activation in QGP1-conditioned media, IFN-γ measurement by HTRF; format: cell-based; settings: anti-CD3 0.5 μg/mL; for effect on C-Media induced decrease in anti-CD3 mediated PBMCs activation (IFN-γ): PBMCs of one healthy donor, 72 hours, conditioned media prepared with Telotristat 1 μM or PEA 300 μM
Procedure: Culture supernatant was then collected and applied on peripheral blood mononuclear cells (PBMCs) cultivated under anti-CD3-based activation for 3-days.
as §1
At the end of PBMCs treatment period as described above, cell culture supernatants were collected and subjected to IFN-γ measurement by mean of HTRF (Homogeneous Time Resolved Technology, Perkin Elmer) which serves as a surrogate of immune cell activation (FIG. 12). HTRF is a standard technique well-known in the art and therefore perfectly within the routine of the skilled person.

Row | SMILES | effect on PEA-induced TPH1 activity (TPH1; Telotristat 1 μM plus PEA 300 μM) | effect on C-Media decrease in Trp level and concomitant increase of 5HTP, 5HT, 5HTP/Trp and 5HT/Trp ratios (TPH1) | effect on the more limited immune cell activation associated with PEA-induced TPH1 activation (IFN-γ) (human PBMCs; PBMCs 72 hours, conditioned media prepared with Telotristat 1 μM plus PEA 300 μM) | effect on C-Media induced decrease in anti-CD3 mediated PBMCs activation (IFN-γ) (human PBMCs)
1 | Cc1ccn(-c2cc(Cl)ccc2[C@@H](Oc2cc(-c3ccc(C[C@H](N)C(=O)O)cc3)nc(N)n2)C(F)(F)F)n1 [Telotristat] | able to limit PEA-induced TPH1 activity | largely limited | alleviated | limited
2 | NCCc1ccccc1 [PEA, Phenethylamine] |  | further increased |  | increased
